Assay results taken from patent publication US9751869B2, “LXR modulators” (BRISTOL-MYERS SQUIBB COMPANY, priority 2013, dated 2017).
pEC50: −log10 of the molar value.

Target: T1, LXRβ (Homo sapiens, UniProt P55055)
T1 construct: Co-transfection expression plasmids, comprising full-length LXRα (pCMX-h LXRα or LXRβ (pCMX-hLXRβ)); expressed in transfected cells; host or cells: CV-1 African green monkey kidney cells, transient transfection with pCMX-hLXRβ
T1 sequence (P55055 1-460): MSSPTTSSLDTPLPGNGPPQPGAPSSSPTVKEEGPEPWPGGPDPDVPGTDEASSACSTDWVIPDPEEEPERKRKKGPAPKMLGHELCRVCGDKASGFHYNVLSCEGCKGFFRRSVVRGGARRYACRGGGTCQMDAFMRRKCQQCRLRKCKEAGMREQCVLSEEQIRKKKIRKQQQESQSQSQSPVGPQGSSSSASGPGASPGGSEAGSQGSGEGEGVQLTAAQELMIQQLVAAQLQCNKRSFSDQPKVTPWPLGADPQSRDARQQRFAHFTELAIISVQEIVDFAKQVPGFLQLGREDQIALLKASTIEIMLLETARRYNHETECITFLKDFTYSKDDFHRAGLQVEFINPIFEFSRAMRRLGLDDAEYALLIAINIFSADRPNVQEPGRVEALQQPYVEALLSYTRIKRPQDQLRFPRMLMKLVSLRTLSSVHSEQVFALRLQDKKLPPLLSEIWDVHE
T1 sequence (P19793 1-462 partner): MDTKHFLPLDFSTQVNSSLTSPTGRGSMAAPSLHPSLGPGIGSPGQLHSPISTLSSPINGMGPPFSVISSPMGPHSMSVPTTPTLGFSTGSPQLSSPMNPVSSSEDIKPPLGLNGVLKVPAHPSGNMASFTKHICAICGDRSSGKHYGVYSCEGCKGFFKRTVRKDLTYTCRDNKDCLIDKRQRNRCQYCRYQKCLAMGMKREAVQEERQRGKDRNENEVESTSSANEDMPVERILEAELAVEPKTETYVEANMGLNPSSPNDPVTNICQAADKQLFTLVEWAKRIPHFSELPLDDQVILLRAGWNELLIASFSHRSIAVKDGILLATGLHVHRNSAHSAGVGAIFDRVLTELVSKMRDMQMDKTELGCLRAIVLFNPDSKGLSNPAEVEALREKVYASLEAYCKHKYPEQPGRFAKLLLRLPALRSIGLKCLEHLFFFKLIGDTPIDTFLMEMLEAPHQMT
Test: LXR/LXRE co-transfection assay (luciferase reporter) in CV-1 cells, LXRβ
Assay type: cell-based
Conditions: for pEC50: CV-1 cells transfected with pCMX-hLXRβ and LXREx1-Tk-Luciferase, 20 hours incubation, read-out: LXRbeta agonism EC50; for Emax: read-out: LXRbeta % EFFICACY
Outline: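 CV-1 cells transiently co-transfected with full-length human LXRβ, LXRE-Tk-luciferase reporter and β-galactosidase control, then exposed to compound (≤0.5% DMSO) for 20 h at 37 °C before luminescence read. EC50 from 10-point, half-log dose curves; efficacy relative to the sulfonamide high control, means of 2–3 experiments.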

[1] = CV-1 cells, relative to maximum response of high control N-(3-((4-fluorophenyl)-(naphthalene-2-sulfonyl)amino)propyl)-2,2-dimethylpropionamide

SMILES	pEC50	Emax [1] [%]	LXRbeta % EFFICACY [1] [%]
Cc1nc(-c2ccc(OC(F)(F)F)cc2)c(-c2cc(-c3cc(Cl)c(CO)c(S(C)(=O)=O)c3)ccc2-c2cc(C(F)(F)F)nn2C)o1 [Example 125, (3-chloro-4′-(1-methyl-3-(trifluoromethyl)-1H-pyrazol-5-yl)-3′-(2-methyl-4-(4-(trifluoromethoxy)phenyl)oxazol-5-yl)-5-(methylsulfonyl)-[1,1′-biphenyl]-4-yl)methanol]	6.75	88	–
Cn1nc(C(F)(F)C#N)cc1-c1ccc(-c2cccc(S(C)(=O)=O)c2)cc1-n1nncc1-c1ccc(OC(F)(F)F)cc1 [Example 30, 2,2-difluoro-2-(1-methyl-5-(3′-(methylsulfonyl)-3-(5-(4-(trifluoromethoxy)phenyl)-1H-1,2,3-triazol-1-yl)-[1,1′-biphenyl]-4-yl)-1H-pyrazol-3-yl)acetonitrile]	5.96	15	–
Cc1nc(-c2cc(-c3cccc(S(C)(=O)=O)c3)ccc2-n2ccc(C(N)=O)n2)c(-c2ccc(OC(F)(F)F)cc2)o1 [Example 416]	5.52	27	–
Cn1nc(C(F)(F)C(C)(C)O)cc1-c1ccc(-c2cccc(S(C)(=O)=O)c2)cc1-n1nncc1-c1ccc(OC(F)(F)F)cc1 [Example 7, 1,1-difluoro-2-methyl-1-(1-methyl-5-(3′-(methylsulfonyl)-3-(5-(4-(trifluoromethoxy)phenyl)-1H-1,2,3-triazol-1-yl)biphenyl-4-yl)-1H-pyrazol-3-yl)propan-2-ol]	6.42	66	–
Cc1nc(-c2ccc(OC(F)(F)F)cc2)c(-c2cc(-c3cc(F)c(CO)c(S(C)(=O)=O)c3)ccc2-n2ccc(COC(N)=O)n2)o1 [Example 375, (1-(3′-fluoro-4′-(hydroxymethyl)-3-(2-methyl-4-(4-(trifluoromethoxy)phenyl)oxazol-5-yl)-5′-(methylsulfonyl)-[1,1′-biphenyl]-4-yl)-1H-pyrazol-3-yl) methyl carbamate]	6.70	62	–
Cc1nc(-c2ccc(OC(F)(F)F)cc2)c(-c2cc(-c3cccc(C4(C(N)=O)CC4)c3)ccc2-n2nc(C(F)(F)F)cc2Cl)o1 [Example 381, 1-(4′-(5-chloro-3-(trifluoromethyl)-1H-pyrazol-1-yl)-3′-(2-methyl-4-(4-(trifluoromethoxy)phenyl)oxazol-5-yl)-[1,1′-biphenyl]-3-yl) cyclopropanecarboxamide]	5.97	61	–
Cc1nc(-c2ccc3c(c2)OC(F)(F)O3)c(-c2cc(-c3cccc(S(C)(=O)=O)c3)ccc2-c2cc(C(C)(C)O)nn2C)o1 [Example 54, 2-(5-(3-(4-(2,2-difluorobenzo[d][1,3]dioxol-5-yl)-2-methyloxazol-5-yl)-3′-(methylsulfonyl)biphenyl-4-yl)-1-methyl-1H-pyrazol-3-yl)propan-2-ol]	6.53	53	–
Cc1nc(-c2ccc(OC(F)(F)F)cc2)c(-c2cc(-c3cccc(C(C)(C)C(N)=O)c3)ccc2-n2ccc(COC(N)=O)n2)o1 [Example 376, (1-(3′-(1-amino-2-methyl-1-oxopropan-2-yl)-3-(2-methyl-4-(4-(trifluoromethoxy)phenyl)oxazol-5-yl)-[1,1′-biphenyl]-4-yl)-1H-pyrazol-3-yl)methyl carbamate]	5.89	53	–
Cc1nc(-c2ccc3c(c2)OC(F)(F)O3)c(-c2cc(-c3cccc(S(C)(=O)=O)c3)ccc2-c2cc(CO)nn2C)o1 [Example 98, (5-(3-(4-(2,2-difluorobenzo[d][1,3]dioxol-5-yl)-2-methyloxazol-5-yl)-3′-(methylsulfonyl)-[1,1′-biphenyl]-4-yl)-1-methyl-1H-pyrazol-3-yl)methanol]	6.59	57	–
Cc1nc(-c2ccc(OC(F)(F)F)cc2)c(-c2cc(-c3cc(F)c(CO)c(S(C)(=O)=O)c3)ccc2-n2ccc(C(N)=O)n2)o1 [Example 320, 1-(3′-fluoro-4′-(hydroxymethyl)-3-(2-methyl-4-(4-(trifluoromethoxy)phenyl)oxazol-5-yl)-5′-(methylsulfonyl)biphenyl-4-yl)-1H-pyrazole-3-carboxamide]	6.33	58	–
Cn1nc(C(F)(F)CO)cc1-c1ccc(-c2cccc(S(C)(=O)=O)c2)cc1-n1nncc1-c1ccc(Cl)cc1 [Example 24, 2-(5-(3-(5-(4-chlorophenyl)-1H-1,2,3-triazol-1-yl)-3′-(methylsulfonyl)-[1,1′-biphenyl]-4-yl)-1-methyl-1H-pyrazol-3-yl)-2,2-difluoroethanol]	5.86	48	–
Cc1nc(-c2ccc3c(c2)OC(F)(F)O3)c(-c2cc(-c3cc(F)c(CO)c(S(C)(=O)=O)c3)ccc2-c2cc(C(=O)NCC(F)(F)F)nn2C)o1 [Example 112, 5-(3-(4-(2,2-difluorobenzo[d][1,3]dioxol-5-yl)-2-methyloxazol-5-yl)-3′-fluoro-4′-(hydroxymethyl)-5′-(methylsulfonyl)-[1,1′-biphenyl]-4-yl)-1-methyl-N-(2,2,2-trifluoroethyl)-1H-pyrazole-3-carboxamide]	6.59	33	–

The next compounds have a higher pEC50 than those just listed; values first:

pEC50	Emax [1] [%]	LXRbeta % EFFICACY [1] [%]	SMILES
6.88	76	–	Cc1nc(-c2cc(-c3cccc(S(C)(=O)=O)c3)ccc2-n2ccc(C(F)(F)F)n2)c(-c2ccc(Cl)cc2)o1 [Example 401, 5-(4-chlorophenyl)-2-methyl-4-(3′-(methylsulfonyl)-4-(3-(trifluoromethyl)-1H-pyrazol-1-yl)biphenyl-3-yl)oxazole]
7.03	35	–	Cc1nc(-c2ccc3c(c2)OC(F)(F)O3)c(-c2cc(-c3cccc(S(C)(=O)=O)c3)ccc2-c2cc(C#N)nn2C)o1 [Example 123, 5-(3-(4-(2,2-difluorobenzo[d][1,3]dioxol-5-yl)-2-methyloxazol-5-yl)-3′-(methylsulfonyl)-[1,1′-biphenyl]-4-yl)-1-methyl-1H-pyrazole-3-carbonitrile]
7.31	–	70	Cc1nc(-c2ccc3c(c2)OC(F)(F)O3)c(-c2cc(-c3cccc(S(C)(=O)=O)c3)ccc2-c2cc(C(C)C#N)nn2C)o1 (stereo not shown) [Example 117, 2-(5-(3-(4-(2,2-difluorobenzo[d][1,3]dioxol-5-yl)-2-methyloxazol-5-yl)-3′-(methylsulfonyl)-[1,1′-biphenyl]-4-yl)-1-methyl-1H-pyrazol-3-yl)propanenitrile]
7.42	64	–	Cc1nc(-c2ccc(OC(F)(F)F)cc2)c(-c2cc(-c3cc(F)c(CO)c(S(C)(=O)=O)c3)ccc2-n2cc(C)c(C(F)(F)F)n2)o1 [Example 439, (3-fluoro-4′-(4-methyl-3-(trifluoromethyl)-1H-pyrazol-1-yl)-3′-(2-methyl-4-(4-(trifluoromethoxy)phenyl)oxazol-5-yl)-5-(methylsulfonyl)-[1,1′-biphenyl]-4-yl)methanol]
7.62	99	–	Cc1nc(-c2ccc(OC(F)F)nc2)c(-c2cc(-c3cccc(S(C)(=O)=O)c3)ccc2-n2cc(Cl)c(C(F)(F)F)n2)o1 [Example 425]
7.64	93	–	Cc1nc(-c2ccc(OC(F)F)nc2)c(-c2cc(-c3cccc(S(C)(=O)=O)c3)ccc2-n2ccc(C(F)(F)F)n2)o1 [Example 353, 4-(6-(difluoromethoxy)pyridin-3-yl)-2-methyl-5-(3′-(methylsulfonyl)-4-(3-(trifluoromethyl)-1H-pyrazol-1-yl)biphenyl-3-yl)oxazole]
7.72	62	–	Cc1nc(-c2ccc3c(c2)OC(F)(F)O3)c(-c2cc(-c3cc(F)c(CO)c(S(C)(=O)=O)c3)ccc2-c2cc(C(C)C#N)nn2C)o1 (stereo not shown) [Example 115, 2-(5-(3-(4-(2,2-difluorobenzo[d][1,3]dioxol-5-yl)-2-methyloxazol-5-yl)-3′-fluoro-4′-(hydroxymethyl)-5′-(methylsulfonyl)-[1,1′-biphenyl]-4-yl)-1-methyl-1H-pyrazol-3-yl)propanenitrile]
8.15	73	–	Cc1nc(-c2ccc3c(c2)OC(F)(F)O3)c(-c2cc(-c3cc(F)c(CO)c(S(C)(=O)=O)c3)ccc2-c2cc(C(F)(F)c3nnco3)nn2C)o1 [Example 51, (4′-(3-(difluoro(1,3,4-oxadiazol-2-yl)methyl)-1-methyl-1H-pyrazol-5-yl)-3′-(4-(2,2-difluorobenzo[d][1,3]dioxol-5-yl)-2-methyloxazol-5-yl)-3-fluoro-5-(methylsulfonyl)biphenyl-4-yl)methanol]
